This note sets out measurements from patent publication US20210221866A1, “PROTEASE-RESISTANT LIPIDATED GLP-1 ANALOGS” (MEDIMMUNE LIMITED, priority 2015, published 2021).

Like-named read-outs stand apart in the source and are kept apart here. Numbered stars: 1 amine (or outer) side, 2 acyl side, 3 side chain; on linkers, the order of the positions; unused ones are H or OH. Square brackets hold non-standard residues; d marks the D form. Side chains are listed from the residue outwards. Peptide text beside a SMILES is read from it. * marks the point of attachment. C16 diacid = O=C(O)CCCCCCCCCCCCCCC(=O)*; γGlu = O=C(O)[C@H](CCC(=O)[*:2])N[*:1]; αMeF = C[C@](N)(Cc1ccccc1)C(=O)O; αMeK = C[C@](N)(CCCCN)C(=O)O; αMeS = C[C@](N)(CO)C(=O)O; AEEA = NCCOCCOCC(=O)O; Aib = CC(C)(N)C(=O)O Bounds are passed on as bounds.

What all share (type): cell-based
For one assay, the target named is T1, GLP-1R (INS1e cells) (Rattus norvegicus, UniProt P32301).
T1 construct: endogenous in cells; host or cells: INS1e cells
T1 sequence (P32301 22-463): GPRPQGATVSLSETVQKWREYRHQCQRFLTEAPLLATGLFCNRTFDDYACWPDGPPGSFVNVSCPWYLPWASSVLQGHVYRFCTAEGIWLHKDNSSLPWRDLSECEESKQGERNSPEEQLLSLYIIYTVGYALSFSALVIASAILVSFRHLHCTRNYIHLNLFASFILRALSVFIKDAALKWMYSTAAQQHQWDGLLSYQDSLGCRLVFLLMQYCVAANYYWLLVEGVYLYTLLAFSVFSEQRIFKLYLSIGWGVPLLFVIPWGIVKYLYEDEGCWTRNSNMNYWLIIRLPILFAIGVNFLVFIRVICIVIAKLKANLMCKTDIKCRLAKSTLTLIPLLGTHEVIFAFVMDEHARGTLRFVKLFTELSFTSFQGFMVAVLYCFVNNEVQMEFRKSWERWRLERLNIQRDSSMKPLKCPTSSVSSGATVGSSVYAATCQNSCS
As to the kind of experiment: INS1e assay, cAMP activity at GLP-1R. The following applies: Table 8, substituted and mono-lipidated peptides.

The target in assay [1] is T2, human GLP-1 receptor (GLP-1R) (Homo sapiens, UniProt P43220).
T2 construct: expressed in transfected cells; host or cells: HEK293 cells or CHO cells
T2 sequence (P43220 24-463): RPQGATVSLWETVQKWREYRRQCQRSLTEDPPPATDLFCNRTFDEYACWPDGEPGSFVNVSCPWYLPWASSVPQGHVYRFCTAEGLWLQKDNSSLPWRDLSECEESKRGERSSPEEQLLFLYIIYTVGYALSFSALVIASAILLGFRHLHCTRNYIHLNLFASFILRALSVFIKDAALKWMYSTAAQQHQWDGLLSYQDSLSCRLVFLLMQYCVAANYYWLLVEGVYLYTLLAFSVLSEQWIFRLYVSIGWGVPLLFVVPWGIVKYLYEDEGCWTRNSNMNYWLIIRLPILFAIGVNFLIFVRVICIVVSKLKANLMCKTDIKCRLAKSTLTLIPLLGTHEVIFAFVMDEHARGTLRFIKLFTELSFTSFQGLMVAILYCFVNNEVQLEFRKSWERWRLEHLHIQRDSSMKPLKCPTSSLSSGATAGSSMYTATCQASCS
Nature of the assay: cAMP assay, human GLP-1R cells. In outline:
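Peptide-stimulated cAMP measured by two-step HTRF after a 30 min room-temperature incubation with receptor-expressing cells (hGLP-1R, hGIPR at 1×10^5 cells/ml; hGCGR at 2×10^5 cells/ml). Duplicate dilutions; EC50 from 4-parameter logistic fit of % Delta F.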
Background: Cyclic AMP is a second messenger, typically raised through Gs and lowered through Gi signalling.

Assay [2] has as its target T3, human glucagon receptor (GCGR) (Homo sapiens, UniProt P47871).
T3 construct: expressed in transfected cells; host or cells: HEK293 cells or CHO cells
Nature of the assay: cAMP assay, human GCGR cells. The protocol:
(§1) Sample dilutions are made in duplicate.
(§2) A frozen cryo-vial of cells expressing the receptor of interest is thawed rapidly in a water-bath, transferred to pre-warmed assay buffer and spun at 240×g for 5 minutes. Cells are re-suspended in assay buffer at a batch-dependent optimized concentration (e.g. hGCGR cells at 2×10^5 cells/ml, hGLP-1R and hGIPR cells at 1×10^5 cells/ml).
(§3) To this, 5 μL cell suspension is added and the plates incubated at room temperature for 30 minutes.
(§4) cAMP levels are measured using a commercially available cAMP dynamic 2 HTRF kit (Cisbio, Cat #62AM4PEJ), following the two step protocol as per manufacturer's recommendations. In brief; anti-cAMP cryptate (donor fluorophore) and cAMP-d2 (acceptor fluorophore) are made up separately by diluting each 1/20 in conjugate & lysis buffer provided in the kit. 5 μL anti-cAMP cryptate is added to wells of the assay plate, and 5 μL cAMP-d2 is added to wells except non-specific binding (NSB) wells, to which conjugate and lysis buffer are added. […] EC50 values of the synthetic peptides determined in cAMP assays are then determined.
(§5) Data is transformed to % Delta F as described in the manufacturer's guidelines and analyzed by 4-parameter logistic fit to determine EC50 values. […] To compare the balance of activities at the GLP-1R and GCGR between different peptides and across different conditions, these can be correlated, where the EC50's are related to those of comparator peptides.

For assay [3], the target named is T4, human glucose-dependent insulinotropic peptide receptor (GIPR) (Homo sapiens, UniProt P48546).
T4 construct: expressed in transfected cells; host or cells: HEK293 cells or CHO cells
T4 sequence (P48546 22-466): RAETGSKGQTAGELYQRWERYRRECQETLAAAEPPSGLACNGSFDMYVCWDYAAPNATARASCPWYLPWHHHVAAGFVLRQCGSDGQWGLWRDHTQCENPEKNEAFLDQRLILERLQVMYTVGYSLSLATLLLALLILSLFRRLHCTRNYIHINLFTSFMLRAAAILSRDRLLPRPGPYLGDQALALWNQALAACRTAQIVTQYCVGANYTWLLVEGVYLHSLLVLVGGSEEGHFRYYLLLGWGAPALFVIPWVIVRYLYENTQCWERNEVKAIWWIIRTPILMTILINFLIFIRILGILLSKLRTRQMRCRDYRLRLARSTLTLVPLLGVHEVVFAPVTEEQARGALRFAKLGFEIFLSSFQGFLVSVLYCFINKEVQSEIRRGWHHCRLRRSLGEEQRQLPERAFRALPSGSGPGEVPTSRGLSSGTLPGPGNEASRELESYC
As to the kind of experiment: cAMP assay, human GIPR cells. The protocol: as §1, §2, §3, §4, §5

[4] abbreviates: mean of n1 and n2, read-out: INS1e assay EC50 Mean pM GLP-1R.
Setting [5] is: mean of n1 and n2, read-out: Mean pM GLP-1R.
Setting [6] is: replicate n1, read-out: Primary assay EC50 GLP-1R n1.
Setting [7] is: replicate n2, read-out: Primary assay EC50 GLP-1R n2.
The mark [8] stands for this setting: second replicate (n2), read-out: Primary assay EC50 Gluc-R.
[9] abbreviates: first replicate, read-out: Primary assay EC50 GIP-R.
[10] abbreviates: second replicate (n2), read-out: Primary assay EC50 GIP-R.

T3 sequence (P47871 26-477): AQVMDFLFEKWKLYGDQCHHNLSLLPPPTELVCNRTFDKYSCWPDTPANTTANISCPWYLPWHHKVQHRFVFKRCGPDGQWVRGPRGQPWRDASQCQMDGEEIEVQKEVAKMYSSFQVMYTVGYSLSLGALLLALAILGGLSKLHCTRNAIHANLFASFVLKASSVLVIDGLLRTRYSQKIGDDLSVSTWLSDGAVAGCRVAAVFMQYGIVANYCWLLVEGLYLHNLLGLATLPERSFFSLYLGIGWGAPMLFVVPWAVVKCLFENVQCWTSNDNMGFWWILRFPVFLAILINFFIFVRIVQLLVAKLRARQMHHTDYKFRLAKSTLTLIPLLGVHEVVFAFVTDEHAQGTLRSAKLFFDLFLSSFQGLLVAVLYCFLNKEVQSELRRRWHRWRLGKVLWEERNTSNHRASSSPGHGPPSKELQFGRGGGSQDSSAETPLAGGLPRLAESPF

For the compound `CCCCCCCCCCCCCCCCCC(=O)NCCOCCOCC(=O)NCCOCCOCC(=O)NCCOCCOCC(=O)NCCCC[C@H](NC(=O)[C@H](C)NC(=O)[C@H](C)NC(=O)[C@H](CCC(=O)O)NC(=O)CNC(=O)[C@H](CCC(=O)O)NC(=O)[C@H](CC(C)C)NC(=O)[C@](C)(Cc1ccccc1)NC(=O)[C@H](CO)NC(=O)[C@H](CO)NC(=O)[C@@H](NC(=O)[C@H](CC(=O)O)NC(=O)[C@H](CO)NC(=O)[C@@H](NC(=O)[C@](C)(Cc1ccccc1)NC(=O)[C@H](CO)NC(=O)CNC(=O)[C@H](CCC(=O)O)NC(=O)C(C)(C)NC(=O)[C@@H](N)Cc1c[nH]cn1)[C@@H](C)O)C(C)C)C(=O)N[C@@H](CCC(=O)O)C(=O)N[C@@](C)(Cc1ccccc1)C(=O)N[C@H](C(=O)N[C@@H](C)C(=O)N[C@@](C)(Cc1ccccc1)C(=O)N[C@H](C(=O)N[C@H](C(=O)N[C@@](C)(CCCCN)C(=O)NCC(=O)NCC(N)=O)C(C)C)C(C)C)[C@@H](C)CC` [compound 52], the EC50 at GLP-1R (INS1e cells) (setting [4]) came to 20 pM.
Consider `CCCCCCCCCCCCCCCC(=O)N[C@@H](CCC(=O)NCCCC[C@H](NC(=O)[C@H](CCC(=O)O)NC(=O)[C@](C)(CCCCN)NC(=O)[C@H](C)NC(=O)[C@H](C)NC(=O)[C@H](CCC(=O)O)NC(=O)CNC(=O)[C@H](CCC(=O)O)NC(=O)[C@H](CC(C)C)NC(=O)[C@](C)(Cc1ccccc1)NC(=O)[C@H](CO)NC(=O)[C@](C)(CO)NC(=O)[C@@H](NC(=O)[C@H](CC(=O)O)NC(=O)[C@H](CO)NC(=O)[C@@H](NC(=O)[C@](C)(Cc1ccccc1)NC(=O)[C@H](CO)NC(=O)CNC(=O)[C@H](CCC(=O)O)NC(=O)C(C)(C)NC(=O)[C@@H](N)Cc1c[nH]cn1)[C@@H](C)O)C(C)C)C(=O)N[C@H](C(=O)N[C@@H](C)C(=O)N[C@@](C)(Cc1ccccc1)C(=O)N[C@H](C(=O)N[C@H](C(=O)N[C@@](C)(CCCCN)C(=O)NCC(=O)NCC(N)=O)C(C)C)C(C)C)[C@@H](C)CC)C(=O)O` [compound 78], for which the EC50 on GLP-1R (INS1e cells) (setting [4]) was 346 pM; at GLP-1R (INS1e cells) (replicate n2, read-out: INS1e assay EC50 GLP-1R n2), 346 pM.
For the compound `CC[C@H](C)[C@H](NC(=O)[C@](C)(Cc1ccccc1)NC(=O)[C@H](CCC(=O)O)NC(=O)[C@](C)(CCCCN)NC(=O)[C@H](C)NC(=O)[C@H](C)NC(=O)[C@H](CCC(=O)O)NC(=O)CNC(=O)[C@H](CCC(=O)O)NC(=O)[C@H](CC(C)C)NC(=O)[C@](C)(Cc1ccccc1)NC(=O)[C@H](CO)NC(=O)[C@](C)(CO)NC(=O)[C@@H](NC(=O)[C@H](CC(=O)O)NC(=O)[C@H](CO)NC(=O)[C@@H](NC(=O)[C@](C)(Cc1ccccc1)NC(=O)[C@H](CO)NC(=O)CNC(=O)[C@H](CCC(=O)O)NC(=O)C(C)(C)NC(=O)[C@@H](N)Cc1c[nH]cn1)[C@@H](C)O)C(C)C)C(=O)N[C@@H](C)C(=O)N[C@@](C)(Cc1ccccc1)C(=O)N[C@H](C(=O)N[C@H](C(=O)N[C@@H](CCCCNC(=O)CCCCCNC(=O)CCCCCNC(=O)CCCCCNC(=O)CCCCCCCCCCCCCCCCC(=O)O)C(=O)NCC(=O)NCC(N)=O)C(C)C)C(C)C` [compound 196], the EC50 in assay [1] (setting [5]) was 125 pM; in assay [1] (setting [6]) it was 190 pM; in assay [1] (setting [7]) it was 63 pM; in assay [2] (setting [8]), not below 26 nM; in assay [3] (setting [9]), not below 26 nM; in assay [3] (setting [10]) it was not below 26 nM.
On to `CC[C@H](C)[C@H](NC(=O)[C@](C)(Cc1ccccc1)NC(=O)[C@H](CCC(=O)O)NC(=O)[C@](C)(CCCCN)NC(=O)[C@H](C)NC(=O)[C@H](C)NC(=O)[C@H](CCC(=O)O)NC(=O)CNC(=O)[C@H](CCC(=O)O)NC(=O)[C@H](CC(C)C)NC(=O)[C@](C)(Cc1ccccc1)NC(=O)[C@H](CO)NC(=O)[C@](C)(CO)NC(=O)[C@@H](NC(=O)[C@H](CC(=O)O)NC(=O)[C@H](CO)NC(=O)[C@@H](NC(=O)[C@](C)(Cc1ccccc1)NC(=O)[C@H](CO)NC(=O)CNC(=O)[C@H](CCC(=O)O)NC(=O)C(C)(C)NC(=O)[C@@H](N)Cc1c[nH]cn1)[C@@H](C)O)C(C)C)C(=O)N[C@@H](C)C(=O)N[C@@](C)(Cc1ccccc1)C(=O)N[C@H](C(=O)N[C@H](C(=O)N[C@@H](CCCCNC(=O)COCCOCCNC(=O)CCCCCCCCCCCCCCCCC(=O)O)C(=O)NCC(=O)NCC(N)=O)C(C)C)C(C)C` [compound 197], for which the EC50 in assay [1] (setting [5]) is 79 pM; in assay [1] (setting [6]), 120 pM; in assay [1] (setting [7]), 34 pM; in assay [2] (setting [8]) it was not below 27 nM; in assay [3] (setting [9]), not below 27 nM; in assay [3] (setting [10]), not below 27 nM.
Regarding `CC[C@H](C)[C@H](NC(=O)[C@H](Cc1ccccc1)NC(=O)[C@H](CCC(=O)O)NC(=O)[C@](C)(CCCCN)NC(=O)[C@H](C)NC(=O)[C@H](C)NC(=O)[C@H](CCC(=O)O)NC(=O)CNC(=O)[C@H](CCC(=O)O)NC(=O)[C@H](CC(C)C)NC(=O)[C@H](CCCCNC(=O)COCCOCCNC(=O)COCCOCCNC(=O)CC[C@H](NC(=O)CCCCCCCCCCCCCCC(=O)O)C(=O)O)NC(=O)[C@H](CO)NC(=O)[C@](C)(CO)NC(=O)[C@@H](NC(=O)[C@H](CC(=O)O)NC(=O)[C@H](CO)NC(=O)[C@@H](NC(=O)[C@](C)(Cc1ccccc1)NC(=O)[C@H](CO)NC(=O)CNC(=O)[C@H](CCC(=O)O)NC(=O)C(C)(C)NC(=O)[C@@H](N)Cc1c[nH]cn1)[C@@H](C)O)C(C)C)C(=O)N[C@@H](C)C(=O)N[C@@H](Cc1c[nH]c2ccccc12)C(=O)N[C@@H](CCCCNC(=O)COCCOCCNC(=O)COCCOCCNC(=O)CC[C@H](NC(=O)CCCCCCCCCCCCCCC(=O)O)C(=O)O)C(=O)N[C@H](C(=O)N[C@@H](CCC(=O)O)C(=O)NCC(=O)NCC(N)=O)C(C)C` [compound 267] (H-H[Aib]EGS[αMeF]TSDV[αMeS]SK([AEEA-AEEA-γGlu-C16 diacid])LEGEAA[αMeK]EFIAWK([AEEA-AEEA-γGlu-C16 diacid])VEGG-NH2; N-terminus assumed), the EC50 in assay [1] (Table 9, bis-lipidated peptides, mean of n1 and n2, read-out: Primary assay EC50 Mean pM GLP-1R) was 569 pM; in assay [1] (Table 9, bis-lipidated peptides, replicate n1, read-out: Primary assay EC50 GLP-1R n1), 628 pM; in assay [1] (Table 9, bis-lipidated peptides, replicate n2, read-out: Primary assay EC50 GLP-1R n2) it was 510 pM; in assay [2] (Table 9, bis-lipidated peptides, first replicate, read-out: Primary assay EC50 Gluc-R (n1)) it was not below 21.7 nM; in assay [2] (Table 9, bis-lipidated peptides, second replicate, read-out: Primary assay EC50 Gluc-R (n2)), not below 21.7 nM; in assay [3] (Table 9, bis-lipidated peptides, first replicate, read-out: Primary assay EC50 GIP-R (n1)) it was not below 21.7 nM. Further, the EC50 in assay [3] (Table 9, bis-lipidated peptides, second replicate, read-out: Primary assay EC50 GIP-R (n2)) is not below 21.7 nM.
